Test results: patent US20070155764A1, “NOVEL SUBSTITUTED PYRIMIDINYLOXY UREAS USEFUL AS INHIBITORS OF PROTEIN KINASES” (KALYPSYS, INC., priority 2005, published 2007)

Legend:
Type in all cases: biochemical
[1] = target: T1, VEGFR2 kinase (Homo sapiens, UniProt P35968); assay: In vitro VEGFR2 kinase assay; details: ADP Quest assay, poly Glu:Tyr substrate, 60 μM ATP
T1 construct: purchased Invitrogen Inc PV3660
Protocol: (§1) In vitro vegfr2 and PDGFRβ Kinase Assays
(§2) 2.5 μl of ADP Quest assay buffer (DiscoverX Inc., cat. #90-0071) containing 20 ng VEGFR2 kinase (Invitrogen Inc, cat. #PV3660) or 25 ng PDGFRβ kinase (Invitrogen Inc., cat. #P3082) is dispensed to wells of a 1536 multi-well, black solid plate. 60 nl of 100× concentration of test compound in DMSO is dispensed to the well by passive pin transfer and incubated for 10 minutes at room temperature (approx. 22° C.). 2.5 μl of ADP Quest assay buffer containing 0.25 μg of poly Glu:Tyr (4:1) substrate peptide (Upstate Inc., cat. #12-440) and 60 μM ATP is then dispensed and the kinase reaction allowed to incubate at 30° C. for 2 hours. The assay plates are sealed and maintained in a humidified environment. After the 2 hour incubation, 2 μl of ADP Quest assay reagent A, followed by 2 μl of assay reagent B, is added. After an additional 30 minute incubation at room temperature, fluorescence intensity is measured on a Molecular Devices Aquest multi-mode plate reader or other suitable plate reader (fluorescence excitation filter: 530/25 [Peak (nm)/FWHM passband (nm)]; dichroic beamsplitter: 561 nm longpass; fluorescence emission filter: 580/10 [Peak (nm)/FWHM passband (nm)]. The assay measures the conversion of a non-fluoresecent molecule to fluorescent resorutin, which correlates with kinase activity. Negative control activity is measured with DMSO lacking any test compound. The positive control is [N-(3-trifluoromethyl-4-chlorophenyl)-N′-(4-(2-methylcarbamoyl-pyridin-4-yl)oxyphenyl)urea], aka Bay 43-9006. Efficacy is measured as a percentage of positive control activity.

[2] = target: T2, human B-Raf protein kinase (Homo sapiens, UniProt P15056); assay: In vitro B-Raf/Mek1 composite kinase assay; details: recombinant GST-tagged human B-Raf (Δ1-415) with inactive Mek1, 2 μM ATP
T2 construct: GST (N); purchased Upstate Inc. 14-530 (B-Raf); 14-420 (Mek1)
Protocol: In Vitro B-Raf/Mek1 Composite Kinase Assay
2.5 μl of B-Raf kinase buffer (20 mM MOPS [pH 7.2], 25 mM sodium glycerophosphate, 2 mM EGTA [pH 8.0], 1 mM sodium orthovanadate, 1 mM dithiothreitol, 10 mM MgCl2, 0.03% Brij-35, 0.3 mg/ml bovine serum albumin) containing 1 ng of recombinant, N-terminal GST-tagged human B-Raf protein kinase (Δ1-415, Upstate Inc., cat. #14-530) is dispensed to wells of a 1536 multi-well white solid plate. 60 nl of 100× concentration of test compound in DMSO is dispensed to the well by passive pin transfer and incubated for 15 minutes at room temperature (approx. 22° C.). […] The assay plates are sealed and maintained in a humidified environment. After 2 hours, 2.5 μl of PKLight protein kinase assay reagent (Cambrex, cat. #LT07-501) is dispensed. After an additional 5 minute incubation at room temperature, luminescence activity is measured on a Molecular Devices Analyst multi-mode plate reader or other suitable plate reader. Kinase inhibition results in less ATP depletion, and therefore increased luminescence signal. Negative control activity is measured with DMSO lacking any test compound. The positive control is [N-(3-trifluoromethyl-4-chlorophenyl)-N′-(4-(2-methylcarbamoyl-pyridin-4-yl)oxyphenyl)urea], aka Bay 43-9006. Efficacy is measured as a percentage of positive control activity.

[3] = target: T3, PDGFRβ kinase (Homo sapiens, UniProt P09619); assay: In vitro PDGFRβ kinase assay; details: ADP Quest assay, poly Glu:Tyr substrate, 60 μM ATP
T3 construct: purchased Invitrogen Inc. P3082
Protocol: as §1, §2

T3 sequence (P09619 33-1106): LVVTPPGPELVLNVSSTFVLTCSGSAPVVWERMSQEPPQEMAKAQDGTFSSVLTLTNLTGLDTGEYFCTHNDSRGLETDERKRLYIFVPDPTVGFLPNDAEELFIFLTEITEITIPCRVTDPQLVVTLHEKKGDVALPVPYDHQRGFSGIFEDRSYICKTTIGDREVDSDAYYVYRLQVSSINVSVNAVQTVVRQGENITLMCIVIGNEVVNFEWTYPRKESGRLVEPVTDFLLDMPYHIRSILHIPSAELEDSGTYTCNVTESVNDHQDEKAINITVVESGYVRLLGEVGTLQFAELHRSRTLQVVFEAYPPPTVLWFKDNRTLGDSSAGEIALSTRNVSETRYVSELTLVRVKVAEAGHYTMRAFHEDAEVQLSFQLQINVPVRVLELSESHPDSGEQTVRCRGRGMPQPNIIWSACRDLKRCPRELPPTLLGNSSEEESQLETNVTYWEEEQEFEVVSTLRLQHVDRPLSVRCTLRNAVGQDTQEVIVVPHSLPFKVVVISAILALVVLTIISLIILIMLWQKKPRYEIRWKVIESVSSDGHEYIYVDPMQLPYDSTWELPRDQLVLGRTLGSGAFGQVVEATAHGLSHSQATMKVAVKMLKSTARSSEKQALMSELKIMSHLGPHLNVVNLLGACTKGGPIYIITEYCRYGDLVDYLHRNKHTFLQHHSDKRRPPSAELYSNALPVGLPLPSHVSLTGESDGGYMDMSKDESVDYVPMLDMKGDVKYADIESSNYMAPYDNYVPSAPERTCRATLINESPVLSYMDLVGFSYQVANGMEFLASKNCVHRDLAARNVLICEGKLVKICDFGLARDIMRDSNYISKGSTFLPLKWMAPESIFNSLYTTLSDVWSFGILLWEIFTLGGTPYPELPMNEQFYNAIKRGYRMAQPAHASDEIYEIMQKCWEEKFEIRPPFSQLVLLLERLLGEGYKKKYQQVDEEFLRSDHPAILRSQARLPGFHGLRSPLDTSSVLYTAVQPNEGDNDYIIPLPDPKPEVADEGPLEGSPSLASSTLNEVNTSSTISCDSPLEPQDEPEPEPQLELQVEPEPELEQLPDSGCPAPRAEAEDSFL
T2 sequence (P15056 416-766): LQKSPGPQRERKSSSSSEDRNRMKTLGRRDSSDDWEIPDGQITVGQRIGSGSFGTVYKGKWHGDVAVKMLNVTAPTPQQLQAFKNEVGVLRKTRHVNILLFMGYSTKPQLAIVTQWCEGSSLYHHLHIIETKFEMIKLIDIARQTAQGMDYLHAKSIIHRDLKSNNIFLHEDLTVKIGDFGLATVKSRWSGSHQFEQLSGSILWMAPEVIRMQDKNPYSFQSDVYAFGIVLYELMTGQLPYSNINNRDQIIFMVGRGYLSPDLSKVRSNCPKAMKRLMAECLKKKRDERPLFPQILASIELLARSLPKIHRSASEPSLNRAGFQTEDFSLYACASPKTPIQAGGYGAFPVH
T1 sequence (P35968 20-1356): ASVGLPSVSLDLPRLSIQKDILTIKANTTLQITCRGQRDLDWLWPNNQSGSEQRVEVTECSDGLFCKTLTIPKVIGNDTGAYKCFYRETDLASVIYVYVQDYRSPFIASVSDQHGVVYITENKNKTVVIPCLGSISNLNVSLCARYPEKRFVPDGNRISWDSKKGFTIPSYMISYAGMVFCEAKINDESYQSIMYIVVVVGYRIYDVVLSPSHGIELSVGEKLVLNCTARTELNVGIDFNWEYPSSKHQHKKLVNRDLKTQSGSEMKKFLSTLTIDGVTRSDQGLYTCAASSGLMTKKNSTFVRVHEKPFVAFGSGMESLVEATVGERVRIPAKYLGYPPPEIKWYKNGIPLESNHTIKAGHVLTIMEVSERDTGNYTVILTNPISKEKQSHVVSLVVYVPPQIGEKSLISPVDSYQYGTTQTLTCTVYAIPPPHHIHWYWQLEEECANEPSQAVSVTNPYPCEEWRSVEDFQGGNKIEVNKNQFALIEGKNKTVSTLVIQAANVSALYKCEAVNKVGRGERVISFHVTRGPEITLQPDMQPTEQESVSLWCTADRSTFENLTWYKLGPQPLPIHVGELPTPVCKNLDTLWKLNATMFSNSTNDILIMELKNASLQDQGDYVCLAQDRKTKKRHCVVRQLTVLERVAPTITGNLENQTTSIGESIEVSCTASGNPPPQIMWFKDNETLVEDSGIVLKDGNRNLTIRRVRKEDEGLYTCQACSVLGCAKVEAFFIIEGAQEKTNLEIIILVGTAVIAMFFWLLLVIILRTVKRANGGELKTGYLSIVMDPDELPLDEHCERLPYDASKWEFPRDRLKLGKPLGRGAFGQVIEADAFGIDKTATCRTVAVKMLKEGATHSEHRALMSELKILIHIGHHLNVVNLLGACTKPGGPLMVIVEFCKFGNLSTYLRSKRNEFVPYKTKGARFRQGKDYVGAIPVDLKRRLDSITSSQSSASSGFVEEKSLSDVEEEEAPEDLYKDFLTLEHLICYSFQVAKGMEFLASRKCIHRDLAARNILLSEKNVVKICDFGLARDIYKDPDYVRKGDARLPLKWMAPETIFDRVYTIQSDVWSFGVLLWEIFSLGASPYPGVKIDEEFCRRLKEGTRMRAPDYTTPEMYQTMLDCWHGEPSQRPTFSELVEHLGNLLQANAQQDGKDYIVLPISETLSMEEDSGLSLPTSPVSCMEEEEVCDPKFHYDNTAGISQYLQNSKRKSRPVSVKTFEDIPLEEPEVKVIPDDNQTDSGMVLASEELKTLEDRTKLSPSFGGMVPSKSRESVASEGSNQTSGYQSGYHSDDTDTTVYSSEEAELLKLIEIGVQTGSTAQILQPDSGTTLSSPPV

Row | Structure (SMILES) | IC50 [1] [µM] | IC50 [2] [µM] | IC50 [3] [µM]
1 | O=C(Nc1cccc(Oc2ccnc(-c3nnco3)c2)c1)Nc1cc(C(F)(F)F)c(Cl)cc1OCCN1CCCC1 [Example 37, 1-(3-(2-(1,3,4-Oxadiazol-2-yl)pyridin-4-yloxy)phenyl)-3-(4-chloro-2-(2-(pyrrolidin-1-yl)ethoxy)-5-(trifluoromethyl)phenyl)urea] | ≤ 10 | ≤ 10 | ≤ 10
2 | CN1CCC(OCc2cc(NC(=O)Nc3ccc(Oc4ccnc(-c5nnco5)c4)cc3)cc(C(F)(F)F)c2)CC1 [Example 47, 1-(4-(2-(1,3,4-Oxadiazol-2-yl)pyridin-4-yloxy)phenyl)-3-(3-((1-methylpiperidin-4-yloxy)methyl)-5-(trifluoromethyl)phenyl)urea] | ≤ 10 | ≤ 10 | ≤ 10
3 | Cn1cc(-c2nccc(Oc3cccc(NC(=O)Nc4ccc(Cl)c(C(F)(F)F)c4)c3)n2)cn1 [Example 71, 1-(4-Chloro-3-(trifluoromethyl)phenyl)-3-(3-(2-(1-methyl-1H-pyrazol-4-yl)pyrimidin-4-yloxy)phenyl)urea] | ≤ 10 | ≤ 10 | ≤ 10
4 | Cc1nn(C)c(C)c1-c1cc(Oc2cccc(NC(=O)Nc3ccc(Cl)c(C(F)(F)F)c3)c2)ncn1 [Example 69, 1-(4-Chloro-3-(trifluoromethyl)phenyl)-3-(3-(6-(1,3,5-trimethyl-1H-pyrazol-4-yl)pyrimidin-4-yloxy)phenyl)urea] | > 10 | ≤ 10 | > 10
5 | O=C(Nc1ccc(Oc2cc(-c3ccc[nH]3)ncn2)cc1)Nc1ccc(Cl)c(C(F)(F)F)c1 [Example 28, 1-(4-(6-(1H-Pyrrol-2-yl)pyrimidin-4-yloxy)phenyl)-3-(4-chloro-3-(trifluoromethyl)phenyl)urea] | ≤ 10 | ≤ 10 | ≤ 10
6 | Cc1nnc(-c2cc(Oc3cccc(NC(=O)Nc4ccc(Cl)c(C(F)(F)F)c4)c3)ncn2)o1 [Example 11, 1-(4-Chloro-3-(trifluoromethyl)phenyl)-3-(3-(6-(5-methyl-1,3,4-oxadiazol-2-yl)pyrimidin-4-yloxy)phenyl)urea] | ≤ 10 | ≤ 10 | ≤ 10
7 | O=C(Nc1cccc(Oc2cc(-c3nnco3)ncn2)c1)Nc1ccc(Cl)c(C(F)(F)F)c1 [Example 9, 1-(3-(6-(1,3,4-Oxadiazol-2-yl)pyrimidin-4-yloxy)phenyl)-3-(4-chloro-3-(trifluoromethyl)phenyl)urea] | ≤ 10 | ≤ 10 | ≤ 10
8 | CN1CCN(Cc2cc(NC(=O)Nc3cccc(Oc4cc(-c5ncco5)ncn4)c3)cc(C(F)(F)F)c2)CC1 [Example 36, 1-(3-((4-Methylpiperazin-1-yl)methyl)-5-(trifluoromethyl)phenyl)-3-(3-(6-(oxazol-2-yl)pyrimidin-4-yloxy)phenyl)urea] | > 10 | ≤ 10 | ≤ 10
9 | O=C(Nc1ccc(Oc2cc(-c3nnco3)ncn2)cc1)Nc1ccc(Cl)c(C(F)(F)F)c1 [Example 8, 1-(4-(6-(1,3,4-Oxadiazol-2-yl)pyrimidin-4-yloxy)phenyl)-3-(4-chloro-3-(trifluoromethyl)phenyl)urea] | ≤ 10 | ≤ 10 | ≤ 10
10 | O=C(Nc1cccc(Oc2cc(-c3ncon3)ncn2)c1)Nc1ccc(Cl)c(C(F)(F)F)c1 [Example 10, 1-(3-(6-(1,2,4-Oxadiazol-3-yl)pyrimidin-4-yloxy)phenyl)-3-(4-chloro-3-(trifluoromethyl)phenyl)urea] | ≤ 10 | ≤ 10 | ≤ 10
11 | CN1CCN(Cc2cc(NC(=O)Nc3cccc(Oc4ccnc(-c5nnco5)c4)c3)cc(C(F)(F)F)c2)CC1 [Example 38, 1-(3-(2-(1,3,4-Oxadiazol-2-yl)pyridin-4-yloxy)phenyl)-3-(3-((4-methylpiperazin-1-yl)methyl)-5-(trifluoromethyl)phenyl)urea] | ≤ 10 | ≤ 10 | ≤ 10
12 | Cn1cc(-c2cc(Oc3ccc(NC(=O)Nc4ccc(Cl)c(C(F)(F)F)c4)cc3)ncn2)cn1 [Example 35, 1-(4-Chloro-3-(trifluoromethyl)phenyl)-3-(4-(6-(1-methyl-1H-pyrazol-4-yl)pyrimidin-4-yloxy)phenyl)urea] | ≤ 10 | ≤ 10 | ≤ 10

More lines, now with the values ahead:

Row | IC50 [1] [µM] | IC50 [2] [µM] | IC50 [3] [µM] | Structure (SMILES)
13 | ≤ 10 | ≤ 10 | ≤ 10 | Cn1cc(-c2nccc(Oc3cccc(NC(=O)Nc4cccc(C(F)(F)F)c4)c3)n2)cn1 [Example 98, 1-(3-(2-(1-Methyl-1H-pyrazol-4-yl)pyrimidin-4-yloxy)phenyl)-3-(3-(trifluoromethyl)phenyl)urea]
14 | ≤ 10 | ≤ 10 | ≤ 10 | CN(C(=O)Nc1ccc(Cl)c(C(F)(F)F)c1)c1ccc(Oc2ccnc(-c3cnn(C)c3)c2)cc1 [Example 119, 3-(4-Chloro-3-trifluoromethyl-phenyl)-1-methyl-1-{4-[2-(1-methyl-1H-pyrazol-4-yl)-pyridin-4-yloxy]-phenyl}-urea]
15 | ≤ 10 | ≤ 10 | ≤ 10 | COCCOc1ccc(NC(=O)Nc2cc(Oc3ccnc(-c4cnn(C)c4)n3)c(F)cc2F)cc1C(F)(F)F [Example 75, 1-(2,4-Difluoro-5-(2-(1-methyl-1H-pyrazol-4-yl)pyrimidin-4-yloxy)phenyl)-3-(4-(2-methoxyethoxy)-3-(trifluoromethyl)phenyl)urea]
16 | ≤ 10 | ≤ 10 | ≤ 10 | Cn1cc(-c2nccc(Oc3ccc(NC(=O)Nc4cccc(C(F)(F)F)c4)cc3)n2)cn1 [Example 99, 1-(4-(2-(1-Methyl-1H-pyrazol-4-yl)pyrimidin-4-yloxy)phenyl)-3-(3-(trifluoromethyl)phenyl)urea]
17 | ≤ 10 | ≤ 10 | ≤ 10 | O=C(Nc1ccc(C(F)(F)F)cc1)Nc1cccc(Oc2cc(-c3nnco3)ncn2)c1 [Example 89, 1-(3-(6-(1,3,4-Oxadiazol-2-yl)pyrimidin-4-yloxy)phenyl)-3-(4-(trifluoromethyl)phenyl)urea]
18 | ≤ 10 | > 10 | ≤ 10 | CNC(=O)c1cc(NC(=O)N(C)c2ccc(Oc3ccnc(C(=O)NC)c3)cc2)cc(C(F)(F)F)c1 [Example 116, 4-{4-[1-Methyl-3-(3-methylcarbamoyl-5-trifluoromethyl-phenyl)-ureido]-phenoxy}-pyridine-2-carboxylic acid methylamide]
19 | > 10 | ≤ 10 | > 10 | CNC(=O)c1cccc(NC(=O)N(C)c2ccc(Oc3ccnc(C(=O)NC)c3)cc2)c1 [Example 115, 4-{4-[1-Methyl-3-(3-methylcarbamoyl-phenyl)-ureido]-phenoxy}-pyridine-2-carboxylic acid methylamide]
20 | ≤ 10 | > 10 | ≤ 10 | Cn1cc(-c2cc(Oc3ccc(NC(=O)Nc4ccc(C(F)(F)F)cc4)cc3)ncn2)cn1 [Example 101, 1-(4-(6-(1-Methyl-1H-pyrazol-4-yl)pyrimidin-4-yloxy)phenyl)-3-(4-(trifluoromethyl)phenyl)urea]
21 | ≤ 10 | ≤ 10 | ≤ 10 | O=C(Nc1cccc(Oc2cc(-c3ccnc4ncnn34)ncn2)c1)Nc1ccc(Cl)c(C(F)(F)F)c1 [Example 107, 1-(3-(6-([1,2,4]Triazolo[1,5-a]pyrimidin-7-yl)pyrimidin-4-yloxy)phenyl)-3-(4-chloro-3-(trifluoromethyl)phenyl)urea]
